Literature values in US8404645B2, “Stable formulations of amylin and its analogues” (Novo Nordisk AS, priority 2007, dated 2013).
Where no end group is shown, it is not given here.

Conditions: treated test animals; provoking marked hyperlactemia followed by hyperglycemia

Row | Substance | Amylin activity in vivo
1 | Arg18 Pro25 Pro 28-des-Lys1-h-amylin | show amylin activity in vivo
2 | Pro28-h-amylin (KCNTATCATQRLANFLVHSSNNFGAILPSTNVGSNTY; ends and bridges not checked; cysteine pairing not given here; UniProt P10997 34-70, looked up, variant S28P) [human amylin analog, Pro at position 28] | show amylin activity in vivo
3 | Pro25 Val26 Pro 28 Pro29-h-amylin | show amylin activity in vivo
4 | Arg18 Pro25 Pro28-h-amylin | show amylin activity in vivo
5 | des-Lys1-h-amylin | show amylin activity in vivo
